Data published in patent US7329782B2, “Compounds for the treatment of metabolic disorders” (Wellstat Therapeutics Corporation, priority 2001, dated 2008).

Tests used:
[1] = tested on: mice challenged with multiple high doses of STZ; test: Mortality in severe insulin-dependent diabetes, multiple high doses of STZ (Example C); type: in vivo, balb/C mice; details: STZ 75 mg/kg i.p. x 5 days, oral 30 mg/kg/day, after three weeks of daily treatment, 20 mice/group
Description: Female balb/C mice (19 wks of age at start of experiment) were challenged with multiple high doses of STZ (75 mg/kg i.p. on 5 consecutive days). Animals were then divided in two groups (20 mice/group) matched for severity of diabetes. Four days after the last dose of STZ, treatments were initiated. One group received Vehicle (0.4 ml of 0.75% HPMC, p.o.), and the other group received oral COMPOUND AA (30 mg/kg/day). After three weeks of daily treatment, cumulative mortality in the Vehicle Control group was 19/20 mice. In contrast, only 5/20 of the COMPOUND AA mice died during this time.

[2] = tested on: mice with severe insulin-dependent diabetes induced by streptozotocin; test: Survival of mice with lethal insulin-dependent diabetes, single dose of streptozotocin (Example B); type: in vivo, Balb/C mice
Description: Female Balb/C mice (14 weeks old) were treated with a single dose of streptozotocin (175 mg/kg i.p.) to induce severe insulin-dependent diabetes. Seven days later, mice were divided into three treatment groups: Compound AH, pioglitazone, and vehicle. Mice were treated daily via oral gavage, and survival was monitored over time.

[3] = tested on: streptozotocin diabetic mice; test: Streptozotocin diabetic mice treated with oral Compound AH for 14 weeks (Example A); type: in vivo, Balb/C mice; details: STZ diabetic mice, 250 mg/kg daily oral, after several weeks of treatment
Description: Streptozotocin (STZ) is a toxin that selectively destroys insulin-producing pancreatic beta cells, and is widely used to induce insulin-dependent diabetes in experimental animals.
Female Balb/C mice (8 weeks old; 18-20 grams body weight) were treated with streptozotocin (STZ) (50 mg/kg i.p. on each of five consecutive days). Fourteen days after the last dose of STZ, blood glucose was measured to verify that the animals were diabetic, and the mice were divided into two groups of 5 animals each, one group receiving Compound AH (250 mg/kg) daily by oral gavage, and the other receiving vehicle (0.75% hydroxypropylmethylcellulose, a suspending agent, in water). […] Blood samples were taken periodically for determination of blood glucose concentrations, and body weights were also recorded.

[4] = tested on: ob/ob mice; test: Acute hypoglycemic effect in ob/ob obese diabetic mice, Expt 2 (Example G); type: in vivo; details: Mus musculus, single oral dose 250 mg/kg, 6 hours, read-out: % Reduction vs Control
Description: Male ob/ob mice (50-55 grams; blood glucose ˜300 mg/dL) were divided into groups of five animals each, and given a single oral dose of test drug (250 mg/kg) suspended in 0.5% carboxymethylcellulose vehicle; a control group received oral vehicle alone. Six hours after oral administration of test drugs or vehicle (control), blood samples were obtained from a tail vein and glucose content was determined with a glucometer.

[5] = tested on: ob/ob mice
Description: Male lean (ob/+ heterozygote) and obese (ob/ob homozygote) C57BL/6 mice approximately 8 weeks of age were obtained from Jackson Labs (Bar Harbor, Me.) and randomly assigned into groups of 5 animals such that body weights and blood glucose concentrations were similar between groups. […] Blood glucose was routinely determined with glucose test strips and a Glucometer Elite XL device (Bayer Corporation). At selected time points, blood samples (˜100 microliters) were obtained with a heparinized capillary tube via the retro-orbital sinus for serum chemistry analysis.
The dose ranges of compounds in this experiment were chosen to include both suboptimal and potentially supraoptimal doses.

[6] = tested on: high fat-fed Sprague Dawley rats; test: Circulating glucose, insulin, triglycerides and free fatty acids in high fat-fed Sprague Dawley rats (Example M); type: in vivo; details: at all doses (10, 30 and 100 mg/kg)
Description: All animals were maintained in a temperature-controlled (25° C.) facility with a strict 12 h light/dark cycle and were given free access to water and food. Rats were fed a high-fat diet (diet number D12451 (containing 45% of calories as fat), Research Diets, New Brunswick, N.J.) for one month prior to drug treatment.
At the indicated time points, blood samples (˜100 μl) were obtained via the tail vein for serum chemistry analysis.

[7] = tested on: high fat-fed C57B1/6J mice; test: Circulating triglycerides, free fatty acids, insulin and leptin in high fat-fed C57B1/6J mice (Example L); type: in vivo; details: oral gavage, after 4 weeks of drug treatment
Excerpt: The high fat-fed mouse is a model for the hypertriglyceridemia and high circulating fatty acid levels, and the insulin and leptin resistance that are found in people at risk for and with obesity, diabetes, cardiovascular disease and other disorders. Male C57B1/6J mice, approximately 8 weeks of age, were randomly assigned into groups of 6 animals. […] Mice were fed a high-fat diet (diet number D12451, containing 45% of calories as fat (Research Diets, New Brunswick, N.J.)) for 6 weeks. […]

O=C(O)CCC(=O)c1ccc(OCc2ccccc2F)cc1 [Compound AA, 4-(4-(2-Fluorobenzyloxy)phenyl)-4-oxobutyric acid]
cumulative mortality (mice died) [1]: 5/20

O=C(O)CCC(=O)c1ccc(OCc2c(F)cccc2F)cc1 [Compound AH, 4-(4-(2,6-Difluorobenzyloxy)phenyl)-4-oxobutyric acid]
Survivors (Survival at 12 weeks) ([2]; STZ 175 mg/kg i.p. mice, daily oral gavage 250 mg/kg/day): Four of the five
body weights of survivors ([2]; at 12 weeks, 250 mg/kg/day oral): recovered and were maintained in the normal range
blood glucose concentrations [3]: began to decrease toward baseline

O=C(O)CCC(=O)c1cccc(OCc2c(F)cccc2F)c1 [Compound AW, 4-(3-(2,6-Difluorobenzyloxy)phenyl)-4-oxobutyric acid]
change in vivo at 250 mg/kg [4]: -53.1 ± 3.1%
serum triglycerides and fatty acids ([5]; 100 to 300 mg/kg/day, versus comparators at their optimum antihyperglycemic doses): reduced serum triglycerides and fatty acids better than did either rosiglitazone or pioglitazone
reduction in blood glucose ([5]; daily oral, over the dose range): comparable to that achieved with pioglitazone and rosiglitazone
serum liver enzymes (ALT, AST, SDH) ([5]; doses ranging from 30 mg/kg/day to 300 mg/kg/day): dose-dependent decrease
weight gain relative to vehicle-treated mice ([5]; four week treatment period, over the dose range): dose-dependent attenuation of weight gain

Cc1cccc(C)c1COc1cccc(C(=O)CCC(=O)O)c1 [Compound BI, 4-(3-(2,6-Dimethylbenzyloxy)phenyl)-4-oxobutyric acid]
free fatty acids [6]: reduced
insulin serum levels (FIG. 1) [7]: effective at lowering
leptin serum levels (FIG. 2) [7]: effective at lowering

Cc1cccc(C)c1COc1cccc(C(=O)CCC(=O)[O-])c1.[Na+] [Compound BL, 4-(3-(2,6-Dimethylbenzyloxy)phenyl)-4-oxobutyric acid Sodium salt]
insulin serum levels (FIG. 1) [7]: effective at lowering
leptin serum levels (FIG. 2) [7]: effective at lowering
